One assay addresses human M1 receptor (Homo sapiens (Human), UniProt P11229). Description: Radioligand (tritiated N-methylscopolamine) binding assay, M1. To be noted: CHO cell membranes expressing human M1; 1.5 nM tritiated N-methylscopolamine; 90 min, 37° C.; read-out: Ki against M1 receptor (Table 21, M1). Put shortly: (§1)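 Membranes from CHO cells expressing the receptor were incubated with 1.5 nM radioligand and twelve compound concentrations (10 μM to […]) for 90 min at 37 °C in 50 mM HEPES, 100 mM NaCl, 5 mM MgCl2, 1 mM EDTA, pH 7.4. Bound radioligand was collected by filtration and counted, and Ki was derived from inhibition.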

The next assay deals with human M2 receptor (Homo sapiens (Human), UniProt P08172). Description: Radioligand (tritiated N-methylscopolamine) binding assay, M2. To be noted: CHO cell membranes expressing human M2; 1.5 nM tritiated N-methylscopolamine; 90 min, 37° C.; read-out: Ki against M2 receptor (Table 21, M2). Put shortly:
as §1

Another assay has as its target human M3 receptor (Homo sapiens (Human), UniProt P20309). Description: Radioligand (tritiated N-methylscopolamine) binding assay, M3. To be noted: CHO cell membranes expressing human M3; 1.5 nM tritiated N-methylscopolamine; 90 min, 37° C.; read-out: Ki against M3 receptor (Table 21, M3). Put shortly:
as §1

In a further assay the target is human M4 receptor (Homo sapiens (Human), UniProt P08173). Description: Radioligand (tritiated N-methylscopolamine) binding assay, M4. To be noted: Ki against the M4 receptor; membranes from CHO cells expressing human M4; tritiated N-methylscopolamine 1.5 nM; read-out: Ki. Put shortly:
as §1

The next assay addresses human M5 receptor (Homo sapiens (Human), UniProt P08912). Description: Radioligand (tritiated N-methylscopolamine) binding assay, M5. The settings on record: CHO cell membranes expressing human M5; 1.5 nM tritiated N-methylscopolamine; 90 min, 37° C.; read-out: Ki against M5 receptor (Table 21, M5). Put shortly: as §1

Sequence of human M5 receptor (P08912 whole entry): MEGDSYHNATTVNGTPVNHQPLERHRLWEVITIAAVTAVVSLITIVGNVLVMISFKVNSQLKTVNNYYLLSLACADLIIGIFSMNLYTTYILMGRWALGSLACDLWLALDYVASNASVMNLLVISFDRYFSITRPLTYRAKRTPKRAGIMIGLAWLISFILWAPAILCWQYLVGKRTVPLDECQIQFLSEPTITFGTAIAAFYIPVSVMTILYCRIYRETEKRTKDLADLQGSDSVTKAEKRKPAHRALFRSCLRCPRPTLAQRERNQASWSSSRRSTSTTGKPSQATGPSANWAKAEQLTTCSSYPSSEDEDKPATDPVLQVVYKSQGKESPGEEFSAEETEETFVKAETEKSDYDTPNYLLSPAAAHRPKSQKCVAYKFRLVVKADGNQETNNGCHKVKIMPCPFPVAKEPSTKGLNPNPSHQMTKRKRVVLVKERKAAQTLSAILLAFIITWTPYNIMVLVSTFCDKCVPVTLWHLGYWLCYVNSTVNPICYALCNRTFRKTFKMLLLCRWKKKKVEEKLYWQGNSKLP
Sequence of human M3 receptor (P20309 whole entry): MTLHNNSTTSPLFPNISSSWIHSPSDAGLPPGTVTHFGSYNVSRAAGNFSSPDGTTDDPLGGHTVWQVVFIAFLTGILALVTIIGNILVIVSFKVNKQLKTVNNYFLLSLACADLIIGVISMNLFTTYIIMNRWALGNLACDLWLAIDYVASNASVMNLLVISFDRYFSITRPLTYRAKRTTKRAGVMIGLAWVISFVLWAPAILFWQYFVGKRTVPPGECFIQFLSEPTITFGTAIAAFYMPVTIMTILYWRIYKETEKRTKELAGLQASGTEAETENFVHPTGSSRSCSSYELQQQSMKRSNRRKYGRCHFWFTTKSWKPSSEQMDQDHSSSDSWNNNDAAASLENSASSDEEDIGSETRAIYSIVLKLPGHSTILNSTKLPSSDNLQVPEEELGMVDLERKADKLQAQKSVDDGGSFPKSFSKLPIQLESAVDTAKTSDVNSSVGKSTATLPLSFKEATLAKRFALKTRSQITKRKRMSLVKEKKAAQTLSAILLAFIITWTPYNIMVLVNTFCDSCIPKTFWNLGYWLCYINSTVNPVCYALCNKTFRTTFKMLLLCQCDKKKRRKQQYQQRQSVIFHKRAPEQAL
Sequence of human M2 receptor (P08172 whole entry): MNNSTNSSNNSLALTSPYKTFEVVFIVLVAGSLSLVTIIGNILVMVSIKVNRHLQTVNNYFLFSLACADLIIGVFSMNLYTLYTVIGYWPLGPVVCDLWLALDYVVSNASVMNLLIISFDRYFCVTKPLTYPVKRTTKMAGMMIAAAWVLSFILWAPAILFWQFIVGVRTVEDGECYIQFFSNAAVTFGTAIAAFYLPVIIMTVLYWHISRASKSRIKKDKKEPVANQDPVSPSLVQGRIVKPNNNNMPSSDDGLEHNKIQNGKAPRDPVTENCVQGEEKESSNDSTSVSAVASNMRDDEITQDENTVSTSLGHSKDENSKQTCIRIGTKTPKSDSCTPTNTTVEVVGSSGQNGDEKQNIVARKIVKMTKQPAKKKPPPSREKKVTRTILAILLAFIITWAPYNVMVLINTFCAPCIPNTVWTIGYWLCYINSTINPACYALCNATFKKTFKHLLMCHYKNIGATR
Sequence of human M1 receptor (P11229 whole entry): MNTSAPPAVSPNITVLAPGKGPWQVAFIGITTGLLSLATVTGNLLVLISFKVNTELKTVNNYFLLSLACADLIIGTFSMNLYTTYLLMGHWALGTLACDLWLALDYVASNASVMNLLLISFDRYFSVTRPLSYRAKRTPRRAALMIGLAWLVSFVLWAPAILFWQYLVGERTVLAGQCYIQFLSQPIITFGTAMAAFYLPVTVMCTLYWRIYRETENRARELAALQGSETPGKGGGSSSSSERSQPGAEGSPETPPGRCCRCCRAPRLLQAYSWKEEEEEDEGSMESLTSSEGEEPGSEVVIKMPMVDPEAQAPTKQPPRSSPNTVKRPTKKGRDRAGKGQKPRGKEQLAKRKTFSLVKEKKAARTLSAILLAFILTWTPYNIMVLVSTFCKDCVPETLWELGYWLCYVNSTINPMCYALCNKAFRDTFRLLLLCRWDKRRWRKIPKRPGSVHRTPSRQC
Sequence of human M4 receptor (P08173 whole entry): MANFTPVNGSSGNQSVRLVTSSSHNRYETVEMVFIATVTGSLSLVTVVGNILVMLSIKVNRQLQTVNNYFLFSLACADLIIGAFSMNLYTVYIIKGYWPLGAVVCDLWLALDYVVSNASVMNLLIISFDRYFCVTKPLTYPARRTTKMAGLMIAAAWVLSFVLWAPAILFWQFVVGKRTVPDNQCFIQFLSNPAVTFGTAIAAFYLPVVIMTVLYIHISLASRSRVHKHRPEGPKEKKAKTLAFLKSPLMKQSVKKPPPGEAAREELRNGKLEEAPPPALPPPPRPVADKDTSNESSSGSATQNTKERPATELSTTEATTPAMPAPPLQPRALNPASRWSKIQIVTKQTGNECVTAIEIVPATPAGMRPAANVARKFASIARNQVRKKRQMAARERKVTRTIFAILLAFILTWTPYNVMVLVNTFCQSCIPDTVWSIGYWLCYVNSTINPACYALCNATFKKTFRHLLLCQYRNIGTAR

As for `C[C@@H]1CN(c2ncc(C#N)cn2)C[C@H](C)N1C(=O)NCCC1CCN(Cc2ccccc2)CC1` [5-20, (2S,6R)-N-[2-(1-benzylpiperidin-4-yl)ethyl]-4-(5-cyanopyrimidin-2-yl)-2,6-dimethylpiperazine-1-carboxamide], the Ki – broadly, a measure of affinity in units of concentration, obtained from inhibition or displacement – at human M1 receptor is over 1000 nM; at human M2 receptor, 100 to 1000 nM; at human M3 receptor, over 1000 nM; at human M4 receptor it was under 10 nM; at human M5 receptor it was over 1000 nM.
`C[C@@H]1CN(c2ncc(Cl)cn2)CCN1C(=O)NCCC1CCN(Cc2ccccc2)CC1` [5-22, (2R)-N-[2-(1-benzylpiperidin-4-yl)ethyl]-4-(5-chloropyrimidin-2-yl)-2-methylpiperazine-1-carboxamide]: the Ki on human M1 receptor is 100 to 1000 nM; on human M2 receptor, 10 to 100 nM; on human M3 receptor it was over 1000 nM; on human M4 receptor it was under 10 nM; at human M5 receptor it was over 1000 nM.
With `CNc1nc(N2CCN(C(=O)NCCC3CCN(Cc4ccccc4)CC3)[C@H](C)C2)ncc1C#N` [5-23, (2R)-N-[2-(1-benzylpiperidin-4-yl)ethyl]-4-[5-cyano-4-(methylamino)pyrimidin-2-yl]-2-methylpiperazine-1-carboxamide], the Ki at human M1 receptor was 100 to 1000 nM; at human M2 receptor, 10 to 100 nM; at human M3 receptor it was over 1000 nM; on human M4 receptor it was under 10 nM; on human M5 receptor it was over 1000 nM.
As for `O=C(NCCC1CCN(Cc2ccccc2)CC1)N1CCN(c2ncc(C(F)(F)F)cn2)CC1` [5-24, N-[2-(1-benzylpiperidin-4-yl)ethyl]-4-[5-(trifluoromethyl)pyrimidin-2-yl]piperazine-1-carboxamide], the inhibition constant Ki on human M1 receptor is 100 to 1000 nM; on human M2 receptor, 10 to 100 nM; at human M3 receptor, over 1000 nM; at human M4 receptor, under 10 nM; on human M5 receptor, over 1000 nM.
As to `C[C@@H]1CN(c2ncc(C(F)(F)F)cn2)C[C@H](C)N1C(=O)NCCC1CCN(Cc2ccccc2)CC1` [5-27, (2R,6S)-N-[2-(1-benzylpiperidin-4-yl)ethyl]-2,6-dimethyl-4-[5-(trifluoromethyl)pyrimidin-2-yl]piperazine-1-carboxamide], the Ki on human M1 receptor is 100 to 1000 nM; on human M2 receptor, 100 to 1000 nM; on human M3 receptor, over 1000 nM; at human M4 receptor, under 10 nM; at human M5 receptor, over 1000 nM.
Consider `C[C@@H]1CN(c2ncc(C(F)(F)F)c(N)n2)C[C@H](C)N1C(=O)NCCC1CCN(Cc2ccccc2)CC1` [5-28, (2R,6S)-4-[4-amino-5-(trifluoromethyl)pyrimidin-2-yl]-N-[2-(1-benzylpiperidin-4-yl)ethyl]-2,6-dimethylpiperazine-1-carboxamide], for which the Ki was 100 to 1000 nM on human M1 receptor; 100 to 1000 nM on human M2 receptor; over 1000 nM on human M3 receptor; under 10 nM on human M4 receptor; over 1000 nM at human M5 receptor.
Turning to `C[C@@H]1CN(c2ncc(C(F)(F)F)c(N)n2)CCN1C(=O)NCCC1CCN(Cc2ccccc2)CC1` [5-29, (2R)-4-[4-amino-5-(trifluoromethyl)pyrimidin-2-yl]-N-[2-(1-benzylpiperidin-4-yl)ethyl]-2-methylpiperazine-1-carboxamide], the Ki on human M1 receptor was over 1000 nM; at human M2 receptor it was 100 to 1000 nM; on human M3 receptor, over 1000 nM; on human M4 receptor, under 10 nM; at human M5 receptor, over 1000 nM.
Regarding `Nc1nc(N2CCN(C(=O)NCCC3CCN(Cc4ccccc4)CC3)CC2)ncc1C(F)(F)F` [5-30, 4-[4-amino-5-(trifluoromethyl)pyrimidin-2-yl]-N-[2-(1-benzylpiperidin-4-yl)ethyl]piperazine-1-carboxamide], the Ki on human M1 receptor is over 1000 nM; on human M2 receptor, 100 to 1000 nM; at human M3 receptor, over 1000 nM; at human M4 receptor it was under 10 nM; on human M5 receptor, over 1000 nM.
`C[C@@H]1CN(c2ncc(Br)cn2)CCN1C(=O)NCCC1CCN(Cc2ccccc2)CC1` [5-31, (2R)-N-[2-(1-benzylpiperidin-4-yl)ethyl]-4-(5-bromopyrimidin-2-yl)-2-methylpiperazine-1-carboxamide]: the inhibition constant Ki on human M1 receptor was 10 to 100 nM; at human M2 receptor it was under 10 nM; on human M3 receptor it was 10 to 100 nM; at human M4 receptor, under 10 nM; at human M5 receptor it was 100 to 1000 nM.
For `C[C@@H]1CN(c2ncc(Cl)c(N)n2)CCN1C(=O)NCCC1CCN(Cc2ccccc2)CC1` [5-32, (2R)-4-(4-amino-5-chloropyrimidin-2-yl)-N-[2-(1-benzylpiperidin-4-yl)ethyl]-2-methylpiperazine-1-carboxamide], the Ki on human M1 receptor was over 1000 nM; on human M2 receptor it was 10 to 100 nM; on human M3 receptor, over 1000 nM; at human M4 receptor it was under 10 nM; on human M5 receptor, over 1000 nM.
With `C[C@@H]1CN(c2cc(F)c(F)c(F)c2)CCN1C(=O)NCCC1CCN(Cc2ccc3[nH]ccc3c2)CC1` [6-1, (2R)-N-{2-[1-(1H-indol-5-ylmethyl)piperidin-4-yl]ethyl}-2-methyl-4-(3,4,5-trifluorophenyl)piperazine-1-carboxamide], the Ki at human M1 receptor was 100 to 1000 nM; at human M2 receptor, under 10 nM; at human M3 receptor, 100 to 1000 nM; on human M4 receptor it was under 10 nM; on human M5 receptor, 100 to 1000 nM.
For the compound `C[C@@H]1CN(c2cc(F)c(F)c(F)c2)CCN1C(=O)NCCC1CCN(Cc2cccc3c2OCC3)CC1` [6-3, (2R)-N-{2-[1-(2,3-dihydro-1-benzofuran-7-ylmethyl)piperidin-4-yl]ethyl}-2-methyl-4-(3,4,5-trifluorophenyl)piperazine-1-carboxamide], the Ki at human M1 receptor was 100 to 1000 nM; on human M2 receptor it was 10 to 100 nM; on human M3 receptor, 100 to 1000 nM; on human M4 receptor, under 10 nM; on human M5 receptor, over 1000 nM.
With `C[C@@H]1CN(c2cc(F)c(F)c(F)c2)CCN1C(=O)NCCC1CCN(Cc2ccc(F)cc2)CC1` [6-4, (2R)-N-(2-{1-[(4-fluorophenyl)methyl]piperidin-4-yl}ethyl)-2-methyl-4-(3,4,5-trifluorophenyl)piperazine-1-carboxamide], the Ki was 100 to 1000 nM at human M1 receptor; 100 to 1000 nM at human M2 receptor; over 1000 nM at human M3 receptor; under 10 nM on human M4 receptor; over 1000 nM on human M5 receptor.
For `C[C@@H]1CN(c2cc(F)c(F)c(F)c2)CCN1C(=O)NCCC1CCN(Cc2cccs2)CC1` [6-26, (2R)-2-methyl-N-{2-[1-(thiophen-2-ylmethyl)piperidin-4-yl]ethyl}-4-(3,4,5-trifluorophenyl)piperazine-1-carboxamide], the Ki at human M1 receptor was 100 to 1000 nM; at human M2 receptor, 10 to 100 nM; at human M3 receptor, over 1000 nM; on human M4 receptor, under 10 nM; on human M5 receptor, over 1000 nM.
As to `C[C@@H]1CN(c2cc(F)c(F)c(F)c2)CCN1C(=O)NCCC1CCN(Cc2ccc(O)cc2)CC1` [6-27, (2R)-N-(2-{1-[(4-hydroxyphenyl)methyl]piperidin-4-yl}ethyl)-2-methyl-4-(3,4,5-trifluorophenyl)piperazine-1-carboxamide], the Ki was 100 to 1000 nM at human M1 receptor; 10 to 100 nM at human M2 receptor; 100 to 1000 nM on human M3 receptor; under 10 nM at human M4 receptor; over 1000 nM at human M5 receptor.
For the compound `Cc1ccccc1CN1CCC(CCNC(=O)N2CCN(c3ncc(C(F)(F)F)cn3)C[C@H]2C)CC1` [6-35, (2R)-2-methyl-N-(2-{1-[(2-methylphenyl)methyl]piperidin-4-yl}ethyl)-4-[5-(trifluoromethyl)pyrimidin-2-yl]piperazine-1-carboxamide], the Ki at human M1 receptor is 100 to 1000 nM; on human M2 receptor, 10 to 100 nM; on human M3 receptor, 100 to 1000 nM; at human M4 receptor, under 10 nM; on human M5 receptor, over 1000 nM.
`C[C@@H]1CN(c2ncc(C(F)(F)F)cn2)CCN1C(=O)NCCC1CCN(Cc2cccc(F)c2)CC1` [6-36, (2R)-N-(2-{1-[(3-fluorophenyl)methyl]piperidin-4-yl}ethyl)-2-methyl-4-[5-(trifluoromethyl)pyrimidin-2-yl]piperazine-1-carboxamide]: the Ki at human M1 receptor was 100 to 1000 nM; at human M2 receptor, 100 to 1000 nM; on human M3 receptor, over 1000 nM; at human M4 receptor it was under 10 nM; on human M5 receptor, over 1000 nM.
For the compound `C[C@@H]1CN(c2ncc(C(F)(F)F)cn2)CCN1C(=O)NCCC1CCN(Cc2ccc(F)cc2)CC1` [6-37, (2R)-N-(2-{1-[(4-fluorophenyl)methyl]piperidin-4-yl}ethyl)-2-methyl-4-[5-(trifluoromethyl)pyrimidin-2-yl]piperazine-1-carboxamide], the Ki on human M1 receptor is 100 to 1000 nM; at human M2 receptor, 10 to 100 nM; at human M3 receptor it was over 1000 nM; at human M4 receptor it was under 10 nM; on human M5 receptor, over 1000 nM.
For the compound `C[C@@H]1CN(c2ncc(C(F)(F)F)cn2)CCN1C(=O)NCCC1CCN(Cc2cccc(C#N)c2)CC1` [6-40, (2R)-N-(2-{1-[(3-cyanophenyl)methyl]piperidin-4-yl}ethyl)-2-methyl-4-[5-(trifluoromethyl)pyrimidin-2-yl]piperazine-1-carboxamide], the Ki at human M1 receptor is 100 to 1000 nM; at human M2 receptor, 10 to 100 nM; at human M3 receptor, 100 to 1000 nM; on human M4 receptor, under 10 nM; at human M5 receptor it was over 1000 nM.

For the origin of these results see patent US11033539B2, “Compounds of formulas (VII), (VIII), (IX), (XI), (XII), (XIII), and (XIV) as muscarinic receptor 4(M4) antagonists for treating neurological diseases” (Neurocrine Biosciences, Inc., priority 2015, dated 2021).
